# Test system: patients with a history of myocardial infarction
# Assay: PEGASUS-TIMI 54 trial, efficacy endpoints (intention-to-treat / full analysis set)
# Format: in vivo, human
# Details: for ischemic events prevented if 10,000 patients were started on treatment versus placebo: intention-to-treat data
# Description: The PEGASUS-TIMI 54 trial (also referred to as the PEGASUS trial or PEGASUS study herein) was a randomized, double-blind, placebo-controlled multinational clinical trial that enrolled over 21,000 patients at 1,161 sites in 31 countries. The protocol was approved by the relevant ethics committees at all participating sites. In the U.S., the PEGASUS trial was assigned a ClinicalTrials.gov number of NCT01225562.
# Patients could be randomized regardless of their prior adenosine diphosphate (ADP) receptor blocker therapy or a lapse in therapy.
# Randomization was performed using a central computerized telephone or web based system, and allocation was double-blind.
# All patients enrolled in the PEGASUS trial were instructed to take open label aspirin at a dose of 75 to 150 mg daily.
# A total of 1360 primary endpoint events would be required to provide approximately 90% power to detect a 20% relative risk reduction with the 90 mg twice daily dose and approximately 83% power to detect a 19% relative risk reduction with the 60 mg twice daily dose when each dose was compared individually with placebo. The primary efficacy analysis was conducted on an intention-to-treat basis, with each of the two doses individually compared to placebo, as a time to event analysis from randomization to the first occurrence of any element of the primary composite endpoint: cardiovascular death, myocardial infarction, or stroke. […] An exploratory analysis of both doses combined compared with placebo was prespecified.
# [1] = 60 mg bid vs. placebo (N = 6958)
# [2] = 90 mg bd, 5651 patients with a coronary stent
# [3] = 90 mg bid (N = 7050), at 3 years
# [4] = 90 mg bid vs. placebo (N = 6988)
smiles,measurement,setting,value
"CCCSc1nc(N[C@@H]2C[C@H]2c2ccc(F)c(F)c2)c2nnn([C@@H]3C[C@H](OCCO)[C@@H](O)[C@H]3O)c2n1 [Ticagrelor, (1S,2S,3R,5S)-3-[7-{[(1R,2S)-2-(3,4-difluorophenyl)cyclopropyl]amino}-5-(propylthio)-3H-[1,2,3]-triazolo[4,5-d]pyrimidin-3-yl]-5-(2-hydroxyethoxy)cyclopentane-1,2-diol]","Irreversible harm (CV death, MI, stroke, ICH, or fatal bleeding): HR",[1],0.86
same,"Irreversible harm (CV death, MI, stroke, ICH, or fatal bleeding): RRR (%)",[1],14%
same,"Net clinical benefit (CV death, MI, stroke, or TIMI major bleeding): HR",[1],0.95
same,"Net clinical benefit (CV death, MI, stroke, or TIMI major bleeding): RRR (%)",[1],5%
same,"ischemic events prevented if 10,000 patients were started on treatment versus placebo",60 mg bid,42
same,Time to first stent thrombosis: HR,90 mg bd vs placebo,0.64
same,"Composite of CV Death/MI/Stroke, landmark: KM % at 12 months","90 mg bd, 1-360 days",2.8%
same,"Composite of CV Death/MI/Stroke, landmark: Patients with events","90 mg bd, 1-360 days",198
same,"Composite of CV Death/MI/Stroke, landmark: Patients with events (%)","90 mg bd, 1-360 days",(2.8%)
same,Stent thrombosis: Patients (%) with events,[2],(0.6%)
same,Stent thrombosis: Patients with events,[2],32
same,"Composite of CV Death/MI/Stroke, landmark: Patients with events","90 mg bd, 361 days or more",295
same,"Composite of CV Death/MI/Stroke, landmark: Patients with events (%)","90 mg bd, 361 days or more",(4.4%)
same,Stent thrombosis: KM %,"90 mg bd, at 36 months",0.6%
same,"Composite of CV Death/MI/Stroke, landmark: KM % at 24 months","90 mg bd, cumulative from day 361 to day 720",2.4%
same,"Composite of CV Death/MI/Stroke, landmark: KM % at 36 months","90 mg bd, cumulative from day 361 to day 1080",5.2%
same,MI: ARR (%),90 mg bid,0.85%
same,MI: NNT,90 mg bid,118
same,Stroke: ARR (%),90 mg bid,0.33%
same,Stroke: NNT,90 mg bid,303
same,All Stroke: 3-year Kaplan-Meier estimate,90 mg bid (N = 7050),(1.61) %
same,All Stroke: n,90 mg bid (N = 7050),100
same,Cardiovascular Death or Myocardial infarction: 3-year Kaplan-Meier estimate,90 mg bid (N = 7050),(6.79) %
same,Cardiovascular Death or Myocardial infarction: n,90 mg bid (N = 7050),424
same,"Cardiovascular Death, Myocardial infarction, or Stroke: 3-year Kaplan-Meier estimate",90 mg bid (N = 7050),(7.85) %
same,"Cardiovascular Death, Myocardial infarction, or Stroke: n",90 mg bid (N = 7050),493
same,Cardiovascular Death: 3-year Kaplan-Meier estimate,90 mg bid (N = 7050),(2.94) %
same,Cardiovascular Death: n,90 mg bid (N = 7050),182
same,Coronary Heart Disease Death or Myocardial infarction: 3-year Kaplan-Meier estimate,90 mg bid (N = 7050),(5.59) %
same,Coronary Heart Disease Death or Myocardial infarction: n,90 mg bid (N = 7050),350
same,"Coronary Heart Disease Death, Myocardial infarction, or Stroke: 3-year Kaplan-Meier estimate",90 mg bid (N = 7050),(6.99) %
same,"Coronary Heart Disease Death, Myocardial infarction, or Stroke: n",90 mg bid (N = 7050),438
same,Coronary Heart Disease Death: 3-year Kaplan-Meier estimate,90 mg bid (N = 7050),(1.53) %
same,Coronary Heart Disease Death: n,90 mg bid (N = 7050),97
same,Death from any cause: 3-year Kaplan-Meier estimate,90 mg bid (N = 7050),(5.15) %
same,Death from any cause: n,90 mg bid (N = 7050),326
same,Hospitalization for Unstable Angina: n,90 mg bid (N = 7050),33
same,Ischemic Stroke: 3-year Kaplan-Meier estimate,90 mg bid (N = 7050),(1.41) %
same,Ischemic Stroke: n,90 mg bid (N = 7050),88
same,Myocardial infarction: 3-year Kaplan-Meier estimate,90 mg bid (N = 7050),(4.40) %
same,Myocardial infarction: n,90 mg bid (N = 7050),275
same,Transient Ischemic Attack: n,90 mg bid (N = 7050),17
same,Urgent Coronary Revascularization for Unstable Angina: n,90 mg bid (N = 7050),74
same,Hospitalization for Unstable Angina: (%),[3],(0.50) %
same,Transient Ischemic Attack: (%),[3],(0.27) %
same,Urgent Coronary Revascularization for Unstable Angina: (%),[3],(1.16) %
same,"Cardiovascular Death, Myocardial infarction, or Stroke: 3-year Kaplan-Meier estimate","90 mg bid (N = 7050), listed as ticagrelor",7.85%
same,All Stroke: HR,90 mg bid vs Placebo,0.82
same,Cardiovascular Death or Myocardial infarction: HR,90 mg bid vs Placebo,0.85
same,"Cardiovascular Death, Myocardial infarction, or Stroke: HR",90 mg bid vs Placebo,0.85
same,Cardiovascular Death: HR,90 mg bid vs Placebo,0.87
same,Coronary Heart Disease Death or Myocardial infarction: HR,90 mg bid vs Placebo,0.81
same,"Coronary Heart Disease Death, Myocardial infarction, or Stroke: HR",90 mg bid vs Placebo,0.82
same,Coronary Heart Disease Death: HR,90 mg bid vs Placebo,0.73
same,Coronary stent thrombosis: RRR,90 mg bid vs Placebo,36%
same,Death from any cause: HR,90 mg bid vs Placebo,1.00
same,Hospitalization for Unstable Angina: HR,90 mg bid vs Placebo,0.89
same,Ischemic Stroke: HR,90 mg bid vs Placebo,0.85
same,Myocardial infarction: HR,90 mg bid vs Placebo,0.81
same,Transient Ischemic Attack: HR,90 mg bid vs Placebo,1.00
same,Urgent Coronary Revascularization for Unstable Angina: HR,90 mg bid vs Placebo,0.97
same,"coronary heart disease death, myocardial infarction, or stroke: RRR",90 mg bid vs Placebo,18%
same,"Irreversible harm (CV death, MI, stroke, ICH, or fatal bleeding): HR",[4],0.88
same,"Irreversible harm (CV death, MI, stroke, ICH, or fatal bleeding): RRR (%)",[4],12%
same,"Net clinical benefit (CV death, MI, stroke, or TIMI major bleeding): HR",[4],1.00
same,"Net clinical benefit (CV death, MI, stroke, or TIMI major bleeding): RRR (%)",[4],0%
same,"ischemic events prevented if 10,000 patients were started on treatment versus placebo",90 mg bid,40

# Source: patent US10300065B2, “Method of treating or prevention of atherothrombotic events in patients with history of myocardial infarction” (ASTRAZENECA AB, priority 2015, dated 2019)
